Patent US20070155823A1, “USE OF BENZO-FUSED HETEROCYCLE SULFAMIDE DERIVATIVES AS NEUROPROTECTIVE AGENTS” (priority 2005, published 2007)
Values joined by “and” are separate entries in the source; they are usually repeats but may differ in a detail not shown here. Identical values can stand only once.

How the values were obtained:
Rat Hippocampal Cultures = test: Cell Titer Glow/Cell Viability in vitro assay, rat hippocampal cultures, insult with 150 μM H2O2; type: cell-based; details: for Cell viability (Cell Titer Glow), single plate / Cell viability (Cell Titer Glow), Mean: rat hippocampal cultures, 150 μM H2O2 insult; for Cell viability (Cell Titer Glow), single plate: individual plates (each in triplicate), vehicle 0.5-0.6; for Cell viability (Cell Titer Glow), Mean: mean of 3 plates (n=9), vehicle mean 0.5
Protocol: (§1) Cell Titer Glow/Cell Viability In Vitro Assay
(§2) The assay was run according to the procedure listed within the insert of the kit purchased from Promega (see attachment at the end of the application).
(§3) Cell Cultures were prepared as follows. Dissociated hippocampal and cortical cell cultures were established from embryonic day 18 rat fetuses. The fetuses were removed via cesarean section from pregnant dams (Harlan Sprague-Dawley) anesthetized with halothane according to the AVMA Panel on Euthanasia. Pups were decapitated and the brains were removed and placed in Hank's Balanced Salt solution (1×HBSS; Gibco, Rockville, Md.). The hippocampi and cortices were dissected out and pooled according to tissue-type. Tissue was trypsinized for 15 min (1 mg/ml trypsin-HBSS; Worthington, Lakewood, N.J.), rinsed with fresh HBSS, incubated in trypsin inhibitor (1 mg/ml; Sigma, St. Louis, Mo.) for 5 min, rinsed again with fresh HBSS and then triturated in 1 ml fresh HBSS with a fire-polished glass pipette. Dissociated cells were seeded at 10,000 cells/well onto poly-D-lysine coated 96-well plates (BD BioScience, Bedford, Ma.) containing 100 ul/well Eagle's Minimal Essential Media (MEM; Gibco) supplemented with 26 mM NaHCO3 (Sigma), 40 mM glucose (Sigma), 20 mM KCl (Sigma), 1 mM sodium pyruvate (Sigma), 10% (v/v) heat-inactivated fetal bovine serum (Hyclone, Logan, Utah), and 0.001% gentamicin sulfate (Sigma) (pH 7.4). Serum-free cultures were plated and maintained in Neurobasal medium+B27 supplement (Gibco). Cells were allowed to attach for 24 h in a humidified 37° C. 5% CO2 incubator before experimental treatment.
(§4) Test compounds were prepared as follows: A 10 mM stock in DMSO of each compound was diluted 1:50 in DPBS rendering a final stock of 200 μM. […] Equal amounts of vehicle or diluted compound were added to each culture well.
(§5) A 30% stock solution of hydrogen peroxide (H2O2; Sigma) was diluted with DPBS 1:100 to yield a […] stock. Five microliters of vehicle or H2O2 stock solution was added to each 100 ul culture well to yield a final concentration of 150 uM.
(§6) Note that in the data listed below, each plate was run in triplicate for a total of n=9.

[1] = system: Rat Cerebral Cortical Cultures; test: Cell Titer Glow/Cell Viability in vitro assay, rat cerebral cortical cultures, insult with 150 μM H2O2; type: cell-based; details: 150 μM H2O2 insult; for Cell viability (Cell Titer Glow), single plate: individual plates (each in triplicate), vehicle 0.8-1.2; for Cell viability (Cell Titer Glow), Mean: mean of 3 plates (n=9)
Protocol: as §1, §2, §3, §4, §5, §6

## NS(=O)(=O)NC[C@H]1COc2cc(Cl)ccc2O1 [Compound #8, (2S)-(−)-N-(6-Chloro-2,3-dihydro-benzo[1,4]dioxin-2-ylmethyl)-sulfamide]
Rat Hippocampal Cultures; compound 0.1 μM
  Cell viability (Cell Titer Glow), single plate: 24 (2×) and 26
Rat Hippocampal Cultures; compound 0.1 μM, SD 1, **p < 0.01
  Cell viability (Cell Titer Glow), Mean: 25**
Rat Hippocampal Cultures; compound 1 μM
  Cell viability (Cell Titer Glow), single plate: 16 and 17 (2×)
Rat Hippocampal Cultures; compound 1 μM, SD 0.6
  Cell viability (Cell Titer Glow), Mean: 17
Rat Hippocampal Cultures; compound 10 μM
  Cell viability (Cell Titer Glow), single plate: 10 and 14 and 15
Rat Hippocampal Cultures; compound 10 μM, SD 3
  Cell viability (Cell Titer Glow), Mean: 13
Rat Hippocampal Cultures; summary in words of Tables 4 and 5 (rat hippocampal and cerebral cortical cultures, 150 μM H2O2)
  Protection of neurons from death and/or damage from oxidative stress or oxidative injury: effective at protecting neurons from death and/or damage from oxidative stress or oxidative injury
[1]; compound 0.1 μM
  Cell viability (Cell Titer Glow), single plate: 28 and 64 and 97
[1]; compound 0.1 μM, SD 35, vehicle mean 1, *p < 0.05
  Cell viability (Cell Titer Glow), Mean: 63*
[1]; compound 1 μM
  Cell viability (Cell Titer Glow), single plate: 19 and 51 and 38
[1]; compound 1 μM, SD 16, vehicle mean 1
  Cell viability (Cell Titer Glow), Mean: 36
[1]; compound 10 μM
  Cell viability (Cell Titer Glow), single plate: 10 and 18 and 51
[1]; compound 10 μM, SD 22, vehicle mean 1
  Cell viability (Cell Titer Glow), Mean: 26

## NS(=O)(=O)NCC1CCc2ccccc2O1 (centres unmarked) [Compound #10, Chroman-2-ylmethylsulfamide]
other
  melting point: 100 to 101 °C
